Patent publication US20170037028A1 (BAYER PHARMA AKTIENGESELLSCHAFT, priority 2013, published 2017)

Molecular target: T1, GLUT1 (Homo sapiens, UniProt P11166)
T1 sequence (P11166 1-492): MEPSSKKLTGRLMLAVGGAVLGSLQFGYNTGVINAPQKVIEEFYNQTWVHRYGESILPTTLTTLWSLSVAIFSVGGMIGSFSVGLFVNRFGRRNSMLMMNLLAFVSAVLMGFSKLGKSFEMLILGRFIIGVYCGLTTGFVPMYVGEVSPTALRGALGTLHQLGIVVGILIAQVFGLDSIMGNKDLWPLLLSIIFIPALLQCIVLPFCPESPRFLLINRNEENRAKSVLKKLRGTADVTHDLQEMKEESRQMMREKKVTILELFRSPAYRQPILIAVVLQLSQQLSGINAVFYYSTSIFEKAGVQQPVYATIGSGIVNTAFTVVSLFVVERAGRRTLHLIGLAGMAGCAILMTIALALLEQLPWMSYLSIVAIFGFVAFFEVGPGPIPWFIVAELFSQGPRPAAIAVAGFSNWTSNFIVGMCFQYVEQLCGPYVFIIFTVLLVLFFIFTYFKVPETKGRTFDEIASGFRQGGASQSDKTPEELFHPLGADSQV
Test: Indirect measurement of GLUT1 activity by quantification of intracellular ATP levels (glucose induced ATP increase)
Assay type: cell-based
Parameters: endogenous in cells; host or cells: DLD1 or CHO-K1
Conditions: read-out: IC50 regarding glucose induced ATP increase (GLUT1 inhibition)
Description: Indirect Measurement of GLUT1 and GLUT2 Activity by Quantification of Intracellular ATP Levels
It is well known that a combination of small-molecule inhibitors of mitochondrial electron transport chain and glucose catabolism synergistically suppress ATP production and impair cellular viability (Ulanovskaya et al., 2008, 2011; Liu, et al. 2001). We therefore used DLD1 or CHO-K1 cells in combination with an oxidative phosphorylation inhibitor to identify GLUT1 and GLUT2 inhibitors. Cell lines were maintained in DMEM medium supplemented with 10% FCS and 1% Penicillin-Streptomycin solution and 2% Glutamax. The cells were treated with trypsin and seeded into 384 plates at a density of 4000 cells/well. The cells were then cultured overnight in glucose free media containing 1% FCS to reduce intracellular ATP levels. […] The CellTiter-Glo® Luminescent Cell Viability Assay from Promega was then used to measure ATP Levels.

Row | SMILES | IC50 [nM]
1 | Cc1c(NC(=O)c2cc(C(N)=O)nc3ccccc23)c(C(=O)N(C)C)nn1Cc1ccc(F)cc1 [Example 1214] | 622
2 | Cc1nn(Cc2cccc(OC(F)(F)F)c2)c(C)c1NC(=O)c1cc(C(F)(F)F)nc2c(Cl)cc(Cl)cc12 [Example 93, 6,8-dichloro-N-{3,5-dimethyl-1-[3-(trifluoromethoxy)benzyl]-1H-pyrazol-4-yl}-2-(trifluoromethyl)quinoline-4-carboxamide] | 292
3 | Cc1nn(Cc2ncccc2C#N)c(C)c1NC(=O)c1cc(C(N)=O)nc2cc(F)c(Cl)cc12 [Example 1411] | 3.2
4 | Cc1nn(Cc2c(F)cccc2F)c(C)c1NC(=O)c1cc(C(N)=O)nc2cc(F)c(Cl)cc12 [Example 1634] | 2.2
5 | Cc1nn(Cc2ccc(C(=O)NCc3ccccc3F)cc2)c(C)c1NC(=O)c1cc(C(F)(F)F)nc2ccc(Br)cc12 [Example 1149] | 126
6 | Cc1nn(Cc2ccccc2C#N)c(C)c1NC(=O)c1cc(C(N)=O)nc2ccc(F)cc12 [Example 221, N^4-[1-(2-cyanobenzyl)-3,5-dimethyl-1H-pyrazol-4-yl]-6-fluoroquinoline-2,4-dicarboxamide] | 6.7
7 | Cc1nn(Cc2ccc(F)cc2)c(C)c1NC(=O)c1cc(C(F)(F)F)nc2ccc(NC(=O)C(N)=O)cc12 [Example 1242] | 1560
8 | Cc1c(NC(=O)c2cc(C(F)(F)F)nc3ccc(Br)cc23)c(C(F)(F)F)nn1Cc1ccc(F)cc1 [Example 32, 6-bromo-N-[1-(4-fluorobenzyl)-5-methyl-3-(trifluoromethyl)-1H-pyrazol-4-yl]-2-(trifluoromethyl)quinoline-4-carboxamide] | 20.5
9 | Cc1nn(C(C)c2ccccc2)c(C)c1NC(=O)c1cc(C(N)=O)nc2cc(F)c(Cl)cc12 (racemic) [Example 1363] | 1.8
10 | Cc1nn(Cc2ccc(C(=O)NCCCC(=O)N(C)C)cc2)c(C)c1NC(=O)c1cc(C(F)(F)F)nc2ccc(Br)cc12 [Example 1044] | 8.8
11 | Cc1cccnc1Cn1nc(C)c(NC(=O)c2cc(C(F)(F)F)nc3c(Cl)cc(Cl)cc23)c1C [Example 82, 6,8-dichloro-N-{3,5-dimethyl-1-[(3-methylpyridin-2-yl)methyl]-1H-pyrazol-4-yl}-2-(trifluoromethyl)quinoline-4-carboxamide] | 250
12 | Cc1c(NC(=O)c2cc(C(N)=O)nc3ccccc23)c(C(F)(F)F)nn1Cc1cccc(C(C)O)c1 (racemic) [Example 1644] | 184
13 | Cc1nn(Cc2cc(F)cc(F)c2)c(C)c1NC(=O)c1cc(C(F)(F)F)nc2c(Cl)cc(Cl)cc12 [Example 1244] | 1590
14 | Cc1c(NC(=O)c2cc(C(N)=O)nc3cc(F)c(Cl)cc23)c(C(F)(F)F)nn1Cc1cccc(C(N)=O)c1 [Example 1603] | 5.8
15 | Cc1nn(Cc2ccc(F)cc2F)c(C)c1NC(=O)c1cc(C(N)=O)nc2cc(F)c(Cl)cc12 [Example 1489] | 6
16 | CNC(=O)c1nc(Cn2nc(C(F)(F)F)c(NC(=O)c3cc(C(N)=O)nc4ccccc34)c2C)no1 [Example 1557] | 53.8
17 | Cc1c(NC(=O)c2cc(C(F)(F)F)nc3ccc(Br)cc23)c(C(N)=O)nn1Cc1ccc(F)cc1 [Example 1135] | 98.1
18 | COc1ccc(Cn2nc(C)c(NC(=O)c3cc(C(F)(F)F)nc4ccc(Br)cc34)c2C)cc1F [Example 1039] | 5.7
19 | Cc1nn(Cc2ccc(CC(=O)N3CCOCC3)cc2)c(C)c1NC(=O)c1cc(C(F)(F)F)nc2ccc(Br)cc12 [Example 158, 6-bromo-N-(3,5-dimethyl-1-{4-[2-(morpholin-4-yl)-2-oxoethyl]benzyl}-1H-pyrazol-4-yl)-2-(trifluoromethyl)quinoline-4-carboxamide] | 521
20 | Cc1ccc2nc(C(N)=O)cc(C(=O)Nc3c(C)nn(Cc4ccc(C#N)cc4)c3C)c2c1 [Example 264, N^4-[1-(4-cyanobenzyl)-3,5-dimethyl-1H-pyrazol-4-yl]-6-methylquinoline-2,4-dicarboxamide] | 2.6
21 | Cc1cccnc1Cn1nc(C)c(NC(=O)c2cc(C(F)(F)F)nc3ccc(Br)cc23)c1C [Example 116, 6-bromo-N-{3,5-dimethyl-1-[(3-methylpyridin-2-yl)methyl]-1H-pyrazol-4-yl}-2-(trifluoromethyl)quinoline-4-carboxamide] | 889
22 | COc1ccccc1Cn1nc(C)c(NC(=O)c2cc(C(F)(F)F)nc3cc(F)c(F)cc23)c1C [Example 1270] | 2890
23 | Cc1ccc2nc(C)cc(C(=O)Nc3c(C)nn(C/C=C/c4ccccc4)c3C)c2c1 [Example 1226] | 924

Row | SMILES | IC50 [nM]
24 | Cc1nn(Cc2ccc(C(=O)N(C)C)cn2)c(C)c1NC(=O)c1cc(C(F)(F)F)nc2ccc(Br)cc12 [Example 1221] | 749
25 | Cc1nn(Cc2ccc(F)cc2)c(C)c1N(Cc1ccccc1)C(=O)c1cc(C(F)(F)F)nc2ccc(Br)cc12 [Example 200] | 539
26 | CNC(=O)c1nn(Cc2ccc(F)cc2)c(C)c1NC(=O)c1cc(C(N)=O)nc2ccccc12 [Example 1231] | 1040
27 | Cc1c(NC(=O)c2cc(C(N)=O)nc3cc(F)ccc23)c(C(F)(F)F)nn1Cc1c(F)cccc1F [Example 1627] | 30.5
28 | Cc1c(NC(=O)c2cc(C(N)=O)nc3ccccc23)c(C(F)(F)F)nn1Cc1ccc(C#N)cc1F [Example 302, N^4-[1-(4-cyano-2-fluorobenzyl)-5-methyl-3-(trifluoromethyl)-1H-pyrazol-4-yl]quinoline-2,4-dicarboxamide] | 1.1
29 | Cc1c(NC(=O)c2cc(C(N)=O)nc3ccccc23)c(C(F)(F)F)nn1Cc1ccc(CC(F)(F)F)cc1 [Example 1717] | 2.5
30 | Cc1nn(Cc2ccc(C#N)cc2)c(C)c1NC(=O)c1cc(C(=O)NCCN(C)C)nc2cc(F)ccc12 [Example 1401] | 1240
31 | Cc1cc(C(=O)Nc2c(C)nn(Cc3ccc(F)cc3)c2C)c2ccc(C#N)cc2n1 [Example 1309] | 17500
32 | Cc1nn(CCOc2ccc(C#N)cc2)c(C)c1NC(=O)c1cc(C(N)=O)nc2ccccc12 [Example 295, N^4-{1-[2-(4-cyanophenoxy)ethyl]-3,5-dimethyl-1H-pyrazol-4-yl}quinoline-2,4-dicarboxamide] | 1020
33 | Cc1nn(Cc2cccc(C#N)c2)c(C)c1NC(=O)c1cc(C(N)=O)nc2ccccc12 [Example 1455] | 20.8
34 | Cc1cccc(Cn2nc(C(F)(F)F)c(NC(=O)c3cc(C(N)=O)nc4cccc(F)c34)c2C)c1 [Example 1479] | 22.7
35 | Cc1c(NC(=O)c2cc(C(N)=O)nc3cccc(F)c23)c(C(F)(F)F)nn1Cc1ccc(F)c(F)c1 [Example 1443] | 4
36 | Cc1nn(Cc2ccncc2)c(C)c1NC(=O)c1cc(C(F)(F)F)nc2ccc(Br)cc12 [Example 160, 6-bromo-N-[3,5-dimethyl-1-(pyridin-4-ylmethyl)-1H-pyrazol-4-yl]-2-(trifluoromethyl)quinoline-4-carboxamide] | 14.3
37 | Cc1nn(Cc2ccc(C(F)(F)F)cc2)c(C)c1NC(=O)c1cc(C(F)(F)F)nc2c(Cl)cc(Cl)cc12 [Example 1243] | 1590
38 | Cc1nn(Cc2cc(C3CC3)on2)c(C)c1NC(=O)c1cc(C(N)=O)nc2cc(F)c(Cl)cc12 [Example 417, 6-chloro-N^4-{1-[(5-cyclopropyl-1,2-oxazol-3-yl)methyl]-3,5-dimethyl-1H-pyrazol-4-yl}-7-fluoroquinoline-2,4-dicarboxamide] | 0.7
39 | COc1cc(C(=O)Nc2c(C)nn(CCCc3ccc(C#N)cc3)c2C)c2ccccc2n1 [Example 349, N-{1-[3-(4-cyanophenyl)propyl]-3,5-dimethyl-1H-pyrazol-4-yl}-2-methoxyquinoline-4-carboxamide] | 15.7
40 | Cc1nn(Cc2cccc(C(C)O)c2)c(C)c1NC(=O)c1cc(C(N)=O)nc2ccccc12 (racemic) [Example 1645] | 319
41 | Cc1nn(Cc2ccc(OC(F)(F)F)cc2)c(C)c1NC(=O)c1cc(C(N)=O)nc2cc(F)ccc12 [Example 1461] | 8.7
42 | Cc1nonc1Cn1nc(C)c(NC(=O)c2cc(C(N)=O)nc3ccccc23)c1C [Example 1515] | 319
43 | Cc1nn(Cc2ccc(C#N)c(F)c2)c(C)c1NC(=O)c1cc(C(F)(F)F)nc2ccc(Br)cc12 [Example 218, 6-bromo-N-[1-(4-cyano-3-fluorobenzyl)-3,5-dimethyl-1H-pyrazol-4-yl]-2-(trifluoromethyl)quinoline-4-carboxamide] | 3.4
44 | CCc1cc(Cn2nc(C)c(NC(=O)c3cc(C(N)=O)nc4cc(F)c(Cl)cc34)c2C)on1 [Example 414, 6-chloro-N^4-{1-[(3-ethyl-1,2-oxazol-5-yl)methyl]-3,5-dimethyl-1H-pyrazol-4-yl}-7-fluoroquinoline-2,4-dicarboxamide] | 1.3
45 | Cc1nn(Cc2ccc(C(=O)NCc3cccs3)cc2)c(C)c1NC(=O)c1cc(C(F)(F)F)nc2ccc(Br)cc12 [Example 1110] | 55.4
